Measured values published in ChEMBL document CHEMBL1141829, “10'-Hydroxyusambarensine, a new antimalarial bisindole alkaloid from the roots of Strychnos usambarensis” (J Nat Prod, 1999).
Converted amounts (≈) assume the structure as drawn.

Columns and labels:
Plasmodium falciparum [1] = experiment: Antiplasmodial activity after 36 hrs against chloroquine-resistant Plasmodium falciparum W2 in human erythrocytes by [3H]hypoxanthine uptake; format: functional, organism-based
Plasmodium falciparum [2] = experiment: Antiplasmodial activity after 36 hrs against chloroquine-sensitive Plasmodium falciparum FCA 20 in human erythrocytes by [3H]hypoxanthine uptake; format: functional, organism-based

Row | Compound | IC50 (Plasmodium falciparum [1]) [µg/mL] | IC50 (Plasmodium falciparum [2]) [µg/mL]
1 | C/C=C1\CN2CCc3c([nH]c4ccccc34)[C@@H]2C[C@@H]1Cc1nccc2c1[nH]c1ccc(O)cc12 | 0.16 (≈ 0.357 µM) | 0.48 (≈ 1.07 µM)
2 | C/C=C1/CN2CCc3c([nH]c4ccccc34)[C@@H]2C[C@@H]1Cc1nccc2c1[nH]c1ccc(O)cc12 | 0.122 (≈ 0.272 µM) | 0.113 (≈ 0.252 µM)
3 | C/C=C1/CN2CCc3c([nH]c4ccccc34)[C@@H]2C[C@@H]1Cc1nccc2c1[nH]c1ccccc12 [USAMBARENSINE] | 0.265 (≈ 0.613 µM) | 0.655 (≈ 1.51 µM)
